Data: paper PMC9648375, “Identification of the first-in-class dual inhibitors of human DNA topoisomerase IIα and indoleamine-2,3-dioxygenase 1 (IDO 1) with strong anticancer properties” (Journal of Enzyme Inhibition and Medicinal Chemistry, 2022)
≈ marks a conversion by molar mass, not a printed value. Like-named read-outs stand apart in the source and are kept apart here.

How the values were obtained:
[1] = system: FaDu (squamous cell carcinoma of the pharynx); test: MTT assay; type: cell-based; conditions: Homo sapiens, read-out: IC50, cytotoxicity
Method: (§1) Therefore, the whole set of compounds were tested by using MTT assay in order to check their overall cytotoxic effect. The growth of cells was monitored after 24 and 48 h of incubation with the increased concentrations (1–100 µg/ml) of the thiosemicarbazide derivatives. […] This confirms that the compounds tested combine different mechanisms of anticancer activity, and DNA topoisomerase II inhibition is only one of them.
(§2) Cytotoxicity of the synthesised compounds were examined against a panel of the cancer cell lines, MCF-7 (estrogen-dependent human breast cancer cells), MDA-MB-231 (oestrogen-independent human breast cancer cells), SCC- 25 (squamous cell carcinoma of the tongue), FaDu (squamous cell carcinoma of the pharynx), A- 549 (human lung carcinoma), AGS (human gastric adenocarcinoma), LS-180, HT-29 (colon cancer cell lines), T98G (glioblastoma cells), A375 (melanoma cells). Human embryonic kidney (HEK-293) cells and human normal skin fibroblasts (CRL-2072) were used as reference cell lines. The investigated cell lines were obtained from American Type Culture Collection (ATCC; Manassas, VA, USA). A375, MCF-7, MDA-MB-231, T98G cells were cultured in Dulbecco’s Modified Eagle’s Medium (DMEM) (Sigma Aldrich, St. Louis, MO, USA) supplemented with 10% heat inactivated foetal bovine serum (FBS), penicillin (100 U/mL), and streptomycin (100 μg/mL). SCC-25 cells were cultured in 1:1 mixture of Dulbecco’s modified Eagle’s medium and Ham’s F12 Medium (Sigma Aldrich, St. Louis, MO, USA) supplemented with 400 ng/ml hydrocortisone, 10% FBS, penicillin (100 U/mL), and streptomycin (100 μg/mL). A549 and AGS cells were maintained in F-12K Medium (Sigma Aldrich, St. Louis, MO, USA). LS-180 and FaDu cells were cultured in Eagle’s Minimum Essential Medium. HT-29 cells were maintained in McCoy’s 5 A Medium (Sigma Aldrich, St. Louis, MO, USA) supplemented with 10%FBS, penicillin (100 U/mL), and streptomycin (100 μg/mL). All the cells were maintained at 37 °C in a humidified atmosphere of 5% CO2.
(§3) The synthesised compounds were dissolved in DMSO in order to obtain stock solutions. At the day of the experiment, the suspension of cells (1 × 10^5 cells/mL) in the respective medium was applied to a 96-well plate at 100 μL per well. […] The control cells were cultured only with a medium containing 2% FBS. Cytotoxicity of DMSO was also checked at concentrations present in respective dilutions of stock solution. After 24 h (or 48 h) of incubation, 15 μL of MTT working solution (5 mg/mL in PBS) was added to each well. The plate was incubated for 3 h. Subsequently, 100 μL of 10% SDS solution was added to each well. Cells were incubated overnight at 37 °C to dissolve the precipitated formazan crystals. The concentration of the dissolved formazan was evaluated by measuring the absorbance at λ = 570 nm, using a microplate reader (Epoch, BioTek Instruments, Inc., Winooski, VT, USA). At least two independent experiments were performed in triplicates. The results of the MTT assay were expressed as mean ± SD. […] IC50 values of the investigated derivatives and standards were calculated using the IC50 calculator.[23]

[2] = system: T98G (glioblastoma cells); test: MTT assay; type: cell-based; conditions: Homo sapiens, read-out: IC50, cytotoxicity
Method: as §1, §2, §3

MTT assay = type: cell-based; conditions: human, HEK-293 cells (normal reference cell line), HEK-293 (normal cells), read-out: IC50, cytotoxicity
Method: as §1, §2, §3

[3] = system: MDA-MB-231 (estrogen-independent human breast cancer cells); test: MTT assay; type: cell-based; conditions: MDA-MB-231, MTT, read-out: IC50, cytotoxicity
Method: as §1, §2, §3

[4] = system: AGS (human gastric adenocarcinoma); test: MTT assay; type: cell-based; conditions: read-out: IC50, cytotoxicity
Method: as §1, §2, §3

[5] = system: SCC-25 (squamous cell carcinoma of the tongue); test: MTT assay; type: cell-based; conditions: Homo sapiens, SCC-25, MTT, read-out: IC50, cytotoxicity
Method: as §1, §2, §3

A375 (melanoma cells) = test: MTT assay; type: cell-based; conditions: Homo sapiens, read-out: IC50, cytotoxicity
Method: as §1, §2, §3

[6] = system: MCF-7 (estrogen-dependent human breast cancer cells); test: MTT assay; type: cell-based; conditions: MCF7, MCF-7, MTT, read-out: IC50, cytotoxicity
Method: as §1, §2, §3

[7] = system: HT-29 (colon cancer cell line); test: MTT assay; type: cell-based; conditions: Homo sapiens, HT-29, MTT, read-out: IC50, cytotoxicity
Method: as §1, §2, §3

[8] = system: LS180 (colon cancer cell line); test: MTT assay; type: cell-based; conditions: Homo sapiens, read-out: IC50, cytotoxicity
Method: as §1, §2, §3

[9] = system: A549 (human lung carcinoma); test: MTT assay; type: cell-based; conditions: read-out: IC50, cytotoxicity
Method: as §1, §2, §3

| Structure (SMILES) | IC50 ([1]; 24h) [µg/mL] | IC50 ([1]; 48 h) [µg/mL] | IC50 ([2]; 24h) [µg/mL] | IC50 ([2]; 48h) [µg/mL] | IC50 at 24 h (MTT assay) [µg/mL] | IC50 at 48 h (MTT assay) [µg/mL] | IC50 ([3]; 24h) [µg/mL] | IC50 ([3]; 48h) [µg/mL] | IC50 ([4]; 24h) [µg/mL] | IC50 ([4]; 48 h) [µg/mL] | IC50 ([5]; 24h) [µg/mL] | IC50 ([5]; 48 h) [µg/mL] | IC50 (A375 (melanoma cells); A-375, 24h) [µg/mL] | IC50 (A375 (melanoma cells); A-375, 48 h) [µg/mL] | IC50 ([6]; 24h) [µg/mL] | IC50 ([6]; 48h) [µg/mL] | IC50 ([7]; 24h) [µg/mL] | IC50 ([7]; 48 h) [µg/mL] | IC50 ([8]; 24h) [µg/mL] | IC50 ([8]; 48 h) [µg/mL] | other results |
| --- | --- | --- | --- | --- | --- | --- | --- | --- | --- | --- | --- | --- | --- | --- | --- | --- | --- | --- | --- | --- | --- |
| O=C(NNC(=S)Nc1c(F)cccc1F)c1ccccc1[N+](=O)[O-] [Compound 4, 4-(2,6-Difluorophenyl)-1-(2-nitrobenzoyl)thiosemicarbazide] | > 100 | 39.2 (≈ 111 µM) | 55.5 (≈ 157 µM) | 7.26 (≈ 20.6 µM) | > 100 | > 100 | > 100 | 32.5 (≈ 92.2 µM) | > 100 | 63.9 (≈ 181 µM) | > 100 | 40.9 (≈ 116 µM) | > 100 | 14.8 (≈ 42 µM) | > 100 | 19.4 (≈ 55.1 µM) | 25 (≈ 71 µM) | > 100 | > 100 | 55.6 (≈ 158 µM) | melting point: 278 to 280 °C; IC50 ([9]; 24h): > 100 µg/mL; IC50 ([9]; 48h): > 100 µg/mL |
| Cc1cccc(C(=O)NC(=S)NNC(=O)c2ccccc2[N+](=O)[O-])c1 [Compound 5, 4-(3-Methylobenzoyl)-1-(2-nitrobenzoyl)thiosemicarbazide] | > 100 | 31.7 (≈ 88.4 µM) | > 100 | 30.1 (≈ 83.9 µM) | 78.1 (≈ 218 µM) | 24.6 (≈ 68.6 µM) | > 100 | 56.3 (≈ 157 µM) | > 100 | 63.9 (≈ 178 µM) | > 100 | 17.3 (≈ 48.3 µM) | 89.3 (≈ 249 µM) | 38.5 (≈ 107 µM) | > 100 | 28.1 (≈ 78.5 µM) | 45.2 (≈ 126 µM) | 12.3 (≈ 34.3 µM) | > 100 | 19.8 (≈ 55.4 µM) | melting point: 194 to 195 °C; IC50 ([9]; 24h): > 100 µg/mL; IC50 ([9]; 48h): > 100 µg/mL |
| O=C(NC(=S)NNC(=O)c1ccccc1[N+](=O)[O-])c1ccc([N+](=O)[O-])cc1 [Compound 6, 1-(2-Nitrobenzoyl)-4-(4-nitrobenzoyl)thiosemicarbazide] | 12.9 (≈ 33.1 µM) | 14.8 (≈ 37.9 µM) | 8.41 (≈ 21.6 µM) | 9.78 (≈ 25.1 µM) | > 100 | 60.1 (≈ 154 µM) | > 100 | 16.8 (≈ 43.3 µM) | 23.5 (≈ 60.3 µM) | 29.8 (≈ 76.5 µM) | 26 (≈ 66.7 µM) | 9.78 (≈ 25.1 µM) | > 100 | 7.98 (≈ 20.5 µM) | > 100 | 15.9 (≈ 40.9 µM) | 22.8 (≈ 58.5 µM) | 6.78 (≈ 17.4 µM) | > 100 | 10.4 (≈ 26.7 µM) | IC50 ([9]; 24h): 20.8 µg/mL (≈ 53.3 µM); IC50 ([9]; 48h): 23.4 µg/mL (≈ 60.2 µM) |
| O=C(NNC(=S)NC(=O)c1ccccc1Cl)c1ccc(O)c([N+](=O)[O-])c1 [Compound 7, 4-(2-Chlorobenzoyl)-1-(4-hydroxy-3-nitrobenzoyl)thiosemicarbazide] | 33.5 (≈ 84.9 µM) | 22.5 (≈ 56.9 µM) | 11.4 (≈ 29 µM) | 10.7 (≈ 27 µM) | 67.2 (≈ 170 µM) | 32.7 (≈ 82.8 µM) | > 100 | 69.4 (≈ 176 µM) | > 100 | 18.8 (≈ 47.5 µM) | 42.4 (≈ 107 µM) | 24.3 (≈ 61.6 µM) | > 100 | 13.9 (≈ 35.2 µM) | > 100 | 24.8 (≈ 62.9 µM) | 47.4 (≈ 120 µM) | 7.18 (≈ 18.2 µM) | > 100 | 24.7 (≈ 62.5 µM) | IC50 ([9]; 24h): > 100 µg/mL; IC50 ([9]; 48h): > 100 µg/mL |
